Experimental data from patent publication US9902716B2, “Fluorinated benzofuranyl-pyrimidine derivatives containing a sulfone group” (Bayer Pharma Aktiengesellschaft, priority 2014, dated 2018).

Tests used:
[1] = system: MOLM-13 cells; assay: Proliferation assay MOLM-13 (Method 3, Cell Titre-Glo); type: cell-based; details: Homo sapiens; MOLM-13, 72-hour exposure; read-out: Inhibition of MOLM-13 cell proliferation IC50
Method: Non-adherent MOLM-13 human acute myeloid leukemia cells (DSMZ ACC 554) were seeded at a density of 5,000 cells/well in a 96-well multititer plate in 100 μL of growth medium supplemented 10% fetal calf serum. After 24 hours, cell viability of one plate (zero-point plate) was determined with the Cell Titre-Glo Luminescent Cell Viability Assay (Promega), while 50 μL of test compound containing medium was added to the wells of the other plates (final concentrations in the range of 0.001-10 μM and DMSO controls; the final concentration of the solvent dimethyl sulfoxide was 0.5%). Cell viability was assessed after 72-hour exposure with the Cell Titre-Glo Luminescent Cell Viability Assay (Promega). IC50 values (inhibitory concentration at 50% of maximal effect) were determined by means of a 4 parameter fit on measurement data which were normalized to vehicle (DMSO) treated cells (=100%) and measurement readings taken immediately before compound exposure (=0%).

[2] = system: A2780 cells; assay: Proliferation assay A2780 (Method 3, crystal violet); type: cell-based; details: Homo sapiens, 96 h; A2780, 4 days incubation; read-out: Inhibition of A2780 cell proliferation IC50
Method: Cultivated tumour cells (HeLa, human cervical tumour cells, ATCC CCL-2; NCI-H460, human non-small cell lung carcinoma cells, ATCC HTB-177; A2780, human ovarian carcinoma cells, ECACC #93112519; DU 145, hormone-independent human prostate carcinoma cells, ATCC HTB-81; HeLa-MaTu-ADR, multidrug-resistant human cervical carcinoma cells, EPO-GmbH Berlin; Caco-2, human colorectal carcinoma cells, ATCC HTB-37; B16F10, mouse melanoma cells, ATCC CRL-6475) were plated at a density of 5,000 cells/well (DU145, HeLa-MaTu-ADR), 3,000 cells/well (NCI-H460, HeLa), 2,500 cells/well (A2780), 1,500 cells/well (Caco-2), or 1,000 cells/well (B16F10) in a 96-well multititer plate in 200 μL of their respective growth medium supplemented 10% fetal calf serum. […] Cell proliferation was determined by staining the cells with crystal violet: the cells were fixed by adding 20 μl/measuring point of an 11% glutaric aldehyde solution for 15 minutes at room temperature. […] The extinction was determined by photometry at a wavelength of 595 nm. The change of cell number, in percent, was calculated by normalization of the measured values to the extinction values of the zero-point plate (=0%) and the extinction of the untreated (0 μm) cells (=100%). […]

Row | IC50 [1] | IC50 [2] | SMILES
1 | 0.046 µM | 0.038 µM | Cc1cc(CS(C)(=O)=O)cc(Nc2ncc(F)c(-c3ccc(F)c4ccoc34)n2)c1 [Example 4, 5-Fluoro-4-(4-fluoro-1-benzofuran-7-yl)-N-{3-methyl-5-[(methylsulfonyl)methyl]-phenyl}pyrimidin-2-amine]
2 | 0.17 µM | 0.09 µM | CS(=O)(=O)Cc1cccc(Nc2ncc(F)c(-c3ccc(F)c4ccoc34)n2)c1 [Example 1, 5-Fluoro-4-(4-fluoro-1-benzofuran-7-yl)-N-{3-[(methylsulfonyl)methyl]-phenyl}pyrimidin-2-amine]
